Test results as given in publication PMC5116089, “Sulfheme formation during homocysteine S-oxygenation by catalase in cancers and neurodegenerative diseases” (Nature Communications, 2016).
Read-outs that look alike come from different tables or passages of the source.

Molecular target: T1, Bovine liver catalase (Bos taurus, UniProt P00432)
T1 construct: Bovine liver catalase was also purchased from Sigma-Aldrich; purchased Sigma-Aldrich; host or cells: bovine liver
T1 sequence (P00432 2-527 limits assumed): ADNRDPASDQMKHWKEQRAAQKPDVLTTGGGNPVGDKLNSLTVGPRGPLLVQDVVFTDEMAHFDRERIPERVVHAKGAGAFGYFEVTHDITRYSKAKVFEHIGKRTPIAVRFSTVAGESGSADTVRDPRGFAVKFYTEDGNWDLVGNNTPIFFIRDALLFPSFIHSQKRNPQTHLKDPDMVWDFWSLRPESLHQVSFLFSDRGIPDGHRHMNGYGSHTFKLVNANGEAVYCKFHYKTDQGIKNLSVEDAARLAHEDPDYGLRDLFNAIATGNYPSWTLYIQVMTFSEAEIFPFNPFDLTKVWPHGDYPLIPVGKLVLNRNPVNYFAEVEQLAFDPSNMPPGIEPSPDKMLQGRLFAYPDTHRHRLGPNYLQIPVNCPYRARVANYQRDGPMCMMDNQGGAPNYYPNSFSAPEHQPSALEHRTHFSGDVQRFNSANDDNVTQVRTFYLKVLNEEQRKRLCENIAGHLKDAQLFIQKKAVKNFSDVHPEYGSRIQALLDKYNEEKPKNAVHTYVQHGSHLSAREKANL
Assay: Catalase activity (H2O2 disappearance at 240 nm) as a function of thiol concentration
Format: biochemical
Conditions: read-out: relative IC50 (CAT activity)
Description: CAT activity was measured on an Uvikon 941 spectrophotometer equipped with a temperature controlled water bath (±1 °C) by following the disappearance of H2O2 at 240 nm over 30–120 s at 25 °C. Catalase activity was calculated based on the rate of decomposition of hydrogen peroxide, which is proportional to the reduction of the absorbance at 240 nm. Experiments were carried out in a 3 ml quartz cuvette containing 11.7 mM H2O2 in 50 mM KPi, pH 7.4±1 mM DTPA and the reaction was initiated by adding 0.3–0.6 pmoles of CAT. The effect of biological thiols on the activity of CAT under physiological conditions was determined from a solution of CAT (30–60 nM) preincubated at 25 °C for at least 120 min as a function thiol concentration (0–40 mM for HCys and Cys, 0–100 mM for GSH) in 50 mM KPi, pH 7.4, 1 mM DTPA. Control experiments (biological thiols alone) were also performed in parallel. In each case, 10 μl of the reaction mixture (biological thiols±CAT) was added to the cuvette containing the H2O2 solution to initiate the reaction. Similarly, the effect of biological thiols on the activity of CAT under pathological conditions was determined from a solution of CAT (30–60 nM) containing a 2.124±0.386 molar excess of iron that was preincubated with various concentrations of thiols (0–1 mM) for at least 120 min at 25 °C in 50 mM KP at pH 7.4. The relative half inhibitory concentration (IC50) values were obtained by plotting the relative activity of CAT (A, in per cent) as a function of the concentration of thiol-compounds (RSH) and by fitting the data with the following four parameter logistic equation: A=Amin+(Amax−Amin)/(1+([RSH]/IC50)^n), where Amax is the maximal activity of CAT (constrained at 100%), Amin is the minimum activity achieved at saturating concentration of RSH and n is the Hillslope that characterizes the slope of the curve at its midpoint. The inactivation rate (kinact, min^−1) was extracted from the time course of the inactivation of CAT bioactivity using a fixed concentration of HCys. Accordingly, a solution of CAT (3.5–5 μM) was incubated with 2 mM L-HCys in 50 mM KPi, pH 7.4, 1 mM DTPA. Aliquots (10 μl) were taken at intervals (0–480 min), diluted 1:50 in 50 mM KPi, pH 7.4, 1 mM DTPA and assayed for CAT activity as described above. Similar experiments were performed in the presence of DMPO, 5,5-dimethyl-1,3-cyclohexanedione (dimedone) or SOD at a final concentration of 100 mM, 4 mM or 40 U, respectively. kinact values were obtained by plotting the relative activity of CAT (A, in per cent) as a function of the incubation time and the data were fitted with an exponential decay function: A=A0+ΔA × e^−kinact × t, with A0 and ΔA (A0+ΔA=100%) the residual activity and the percentage of CAT inhibition when t→∞, respectively. The effect of NaSH on the consumption of H2O2 in cell lysates was determined from a solution of cell lysates (0.5–3 mg ml^−1) incubated on ice with various concentrations of NaSH (0–200 μM). The disappearance of H2O2 was then followed at 240 nm for 2–5 min at 25 °C after the addition of 20–25 μl of the reaction mixture in a 3 ml cuvette containing 11.7 mM H2O2 in 50 mM KPi, pH 7.4. The relative half inhibitory concentration (IC50) values for NaSH were obtained by plotting the relative rate of disappearance of H2O2 (ΔA240 nm/min) as a function of the concentration of NaSH and by fitting the data with an hyperbolic decay equation. All the experiments were performed at least in triplicate.

[1] = +1 mM DTPA (physiological conditions), 50 mM phosphate buffer pH 7.4, 25 °C, n=3±s.d.
[2] = iron 55–145 nM, −DTPA (pathological conditions), 50 mM phosphate buffer pH 7.4, 25 °C, n=3±s.d.

IC50 [1] | IC50 (iron 55–145 nM, + 0.2 mM DTPA) | IC50 (iron 55–145 nM, + 1 mM DTPA) | IC50 (iron 55–145 nM, + DMPO) | IC50 (iron 55–145 nM, + SOD) | IC50 [2] | Structure (SMILES)
590 ± 70 µM | 69 ± 27 µM | 594 ± 67 µM | > 700 µM | 66 ± 16 µM | 3.5 ± 0.3 µM | N[C@@H](CS)C(=O)O [Cys, cysteine]
21200 ± 8500 µM | – | – | – | – | 55 ± 14 µM | N[C@@H](CCC(=O)N[C@@H](CS)C(=O)NCC(=O)O)C(=O)O [GSH, glutathione]
1440 ± 370 µM | – | – | – | – | 37 ± 3 µM | NC(CCS)C(=O)O (stereo not shown) [HCys, homocysteine]
